# Measurements published in ChEMBL document CHEMBL1201861, “Genomics of Drug Sensitity in Cancer screening data, Wellcome Trust Sanger Institute”.
# Experiments:
# Assay in all cases: cells
# [1] = tested on: COR-L105; type: functional, cell-based, Homo sapiens; details: Homo sapiens, COR-L105;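 further: cell growth inhibition determined with a viability assay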
# Description: SANGER: Inhibition of human COR-L105 cell growth in a cell viability assay.
# [2] = tested on: Calu-3; type: functional, cell-based, Homo sapiens; details: Homo sapiens, Calu-3;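 further: growth inhibition of human Calu-3 cells, determined with a cell viability assay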
# Description: SANGER: Inhibition of human Calu-3 cell growth in a cell viability assay.
# [3] = tested on: D-336MG; type: functional, cell-based, Homo sapiens; details: Homo sapiens, D-336MG
# Description: SANGER: Inhibition of human D-336MG cell growth in a cell viability assay.
# [4] = tested on: D-392MG; type: functional, cell-based, Homo sapiens; details: Homo sapiens, D-392MG
# [5] = tested on: DK-MG; type: functional, cell-based, Homo sapiens; details: Homo sapiens, DK-MG;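 further: growth inhibition of DK-MG cells, read out with a cell viability assay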
# Description: SANGER: Inhibition of human DK-MG cell growth in a cell viability assay.
# [6] = tested on: DMS-79; type: functional, cell-based; details: Homo sapiens;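 further: growth inhibition measured with a cell viability assay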
# Description: SANGER: Inhibition of human DMS-79 cell growth in a cell viability assay.
# [7] = tested on: EC-GI-10; type: functional, cell-based, Homo sapiens; details: Homo sapiens, EC-GI-10
# Description: SANGER: Inhibition of human EC-GI-10 cell growth in a cell viability assay.
# [8] = tested on: EKVX; type: functional, cell-based, Homo sapiens; details: Homo sapiens, EKVX;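 further: growth inhibition of human EKVX cells, read out with a cell viability assay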
# Description: SANGER: Inhibition of human EKVX cell growth in a cell viability assay.
# [9] = tested on: EW-1; type: functional, cell-based, Homo sapiens; details: Homo sapiens, EW-1;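 further: growth inhibition of the human EW-1 cell line, read out by a cell viability assay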
# Description: SANGER: Inhibition of human EW-1 cell growth in a cell viability assay.
# [10] = tested on: EW-24; type: functional, cell-based; details: Homo sapiens;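 further: human EW-24 cancer cell line, growth inhibition read out via a cell viability assay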
# Description: SANGER: Inhibition of human EW-24 cell growth in a cell viability assay.
# [11] = tested on: HLE; type: functional, cell-based, Homo sapiens; details: Homo sapiens, HLE;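 further: growth inhibition of human HLE cells, read out by a cell viability assay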
# Description: SANGER: Inhibition of human HLE cell growth in a cell viability assay.
# [12] = tested on: HSC-3; type: functional, cell-based, Homo sapiens; details: Homo sapiens, HSC-3
# Description: SANGER: Inhibition of human HSC-3 cell growth in a cell viability assay.
# [13] = tested on: HT-1376; type: functional, cell-based, Homo sapiens; details: Homo sapiens, HT-1376
# Description: SANGER: Inhibition of human HT-1376 cell growth in a cell viability assay.
# [14] = tested on: Hs-578T; type: functional, cell-based, Homo sapiens; details: Homo sapiens, Hs-578T
# Description: SANGER: Inhibition of human Hs-578-T cell growth in a cell viability assay.
# [15] = tested on: LN-405; type: functional, cell-based, Homo sapiens; details: Homo sapiens, LN-405
# Description: SANGER: Inhibition of human LN-405 cell growth in a cell viability assay.
# [16] = tested on: LU-99A; type: functional, cell-based, Homo sapiens; details: Homo sapiens, LU-99A;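 further: growth inhibition of LU-99A cells, read out with a cell viability assay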
# Description: SANGER: Inhibition of human LU-99A cell growth in a cell viability assay.
# [17] = tested on: MDA-MB-361; type: functional, cell-based, Homo sapiens; details: Homo sapiens, MDA-MB-361
# [18] = tested on: MDA-MB-415; type: functional, cell-based; details: Homo sapiens
# [19] = tested on: MSTO-211H; type: functional, cell-based, Homo sapiens; details: Homo sapiens, MSTO-211H
# Description: SANGER: Inhibition of human MSTO-211H cell growth in a cell viability assay.
# [20] = tested on: Mo; type: functional, cell-based; details: Homo sapiens
# Description: SANGER: Inhibition of human Mo-T cell growth in a cell viability assay.
# [21] = tested on: NCI-H2030; type: functional, cell-based, Homo sapiens; details: Homo sapiens, NCI-H2030;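 further: growth inhibition of human NCI-H2030 cells, read out by a cell viability assay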
# Description: SANGER: Inhibition of human NCI-H2030 cell growth in a cell viability assay.
# [22] = tested on: NCI-H2052; type: functional, cell-based, Homo sapiens; details: Homo sapiens, NCI-H2052;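 further: growth inhibition of NCI-H2052 cells, read out with a cell viability assay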
# Description: SANGER: Inhibition of human NCI-H2052 cell growth in a cell viability assay.
# [23] = tested on: NCI-H226; type: functional, cell-based, Homo sapiens; details: Homo sapiens, NCI-H226;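 further: cell viability read-out used to gauge growth inhibition of the cells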
# Description: SANGER: Inhibition of human NCI-H226 cell growth in a cell viability assay.
# [24] = tested on: NCI-H596; type: functional, cell-based, Homo sapiens; details: Homo sapiens, NCI-H596;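 further: growth inhibition of NCI-H596 cells, read out with a cell viability assay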
# Description: SANGER: Inhibition of human NCI-H596 cell growth in a cell viability assay.
# [25] = tested on: PANC-03-27; type: functional, cell-based, Homo sapiens; details: Homo sapiens, PANC-03-27
# Description: SANGER: Inhibition of human PANC-03-27 cell growth in a cell viability assay.
# [26] = tested on: PC-14; type: functional, cell-based, Homo sapiens; details: Homo sapiens, PC-14;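 further: cell viability assay measuring inhibition of PC-14 cell growth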
# Description: SANGER: Inhibition of human PC-14 cell growth in a cell viability assay.
# [27] = tested on: QIMR-WIL; type: functional, cell-based; details: Homo sapiens;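 further: growth inhibition of QIMR-WIL cells, read out with a cell viability assay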
# Description: SANGER: Inhibition of human QIMR-WIL cell growth in a cell viability assay.
# [28] = tested on: RERF-LC-MS; type: functional, cell-based, Homo sapiens; details: Homo sapiens, RERF-LC-MS;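 further: growth inhibition of human RERF-LC-MS cells, read out by a cell viability assay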
# Description: SANGER: Inhibition of human RERF-LC-MS cell growth in a cell viability assay.
# [29] = tested on: SK-HEP1; type: functional, cell-based, Homo sapiens, SK-HEP-1; details: Homo sapiens, SK-HEP1;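 further: cell viability readout used to quantify reduction in proliferation of human SK-HEP-1 cells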
# Description: SANGER: Inhibition of human SK-HEP-1 cell growth in a cell viability assay.
# [30] = tested on: SK-MEL3; type: functional, cell-based, Homo sapiens, SK-MEL-3; details: Homo sapiens, SK-MEL3;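 further: growth inhibition of human SK-MEL-3 cells, read out with a cell viability assay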
# Description: SANGER: Inhibition of human SK-MEL-3 cell growth in a cell viability assay.
# [31] = tested on: SN12C; type: functional, cell-based, Homo sapiens; details: Homo sapiens, SN12C;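 further: growth inhibition of human SN12C cells, measured by a cell viability assay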
# Description: SANGER: Inhibition of human SN12C cell growth in a cell viability assay.
# [32] = tested on: SNB-75; type: functional, cell-based, Homo sapiens; details: Homo sapiens, SNB-75;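 further: cell viability assay measuring growth inhibition of human SNB-75 cells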
# Description: SANGER: Inhibition of human SNB75 cell growth in a cell viability assay.
# [33] = tested on: SW1088; type: functional, cell-based, Homo sapiens; details: Homo sapiens, SW1088;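 further: growth inhibition of human SW1088 cells, read out by a cell viability assay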
# Description: SANGER: Inhibition of human SW1088 cell growth in a cell viability assay.
# [34] = tested on: SW13; type: functional, cell-based, Homo sapiens; details: Homo sapiens, SW13;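 further: IC50 is inhibition of SW13 cell growth, read out with a cell viability assay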
# Description: SANGER: Inhibition of human SW13 cell growth in a cell viability assay.
# [35] = tested on: SW1417; type: functional, cell-based, Homo sapiens; details: Homo sapiens, SW1417;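 further: growth inhibition of human SW1417 cells, read out with a cell viability assay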
# Description: SANGER: Inhibition of human SW1417 cell growth in a cell viability assay.
# [36] = tested on: TCC-SUP; type: functional, cell-based, Homo sapiens; details: Homo sapiens, TCC-SUP;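 further: growth inhibition of TCC-SUP cells, read out with a cell viability assay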
# Description: SANGER: Inhibition of human TCCSUP cell growth in a cell viability assay.
# [37] = tested on: 8305C; type: functional, cell-based, Homo sapiens; details: Homo sapiens, 8305C
# Description: SANGER: Inhibition of human 8305C cell growth in a cell viability assay.
# [38] = tested on: A-431; type: functional, cell-based, Homo sapiens; details: Homo sapiens, A-431;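 further: growth inhibition of A-431 cells, determined with a cell viability read-out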
# Description: SANGER: Inhibition of human A431 cell growth in a cell viability assay.
# [39] = tested on: A498; type: functional, cell-based, Homo sapiens; details: Homo sapiens, A498;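 further: growth inhibition of human A498 cells, read out with a cell viability assay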
# Description: SANGER: Inhibition of human A498 cell growth in a cell viability assay.
# [40] = tested on: A673; type: functional, cell-based, Homo sapiens; details: Homo sapiens, A673;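 further: growth inhibition of human A673 cells, read out through a cell viability assay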
# Description: SANGER: Inhibition of human A673 cell growth in a cell viability assay.
# [41] = tested on: BEN; type: functional, cell-based, Homo sapiens; details: Homo sapiens, BEN;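 further: growth inhibition of the BEN cell line, read out with a cell viability assay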
# Description: SANGER: Inhibition of human BEN cell growth in a cell viability assay.
# [42] = tested on: BT-474; type: functional, cell-based, Homo sapiens; details: Homo sapiens, BT-474
# Description: SANGER: Inhibition of human BT-474 cell growth in a cell viability assay.
# [43] = tested on: C-33-A; type: functional, cell-based, Homo sapiens; details: Homo sapiens, C-33-A;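 further: cell viability assay measuring growth inhibition of C-33-A cells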
# Description: SANGER: Inhibition of human C-33-A cell growth in a cell viability assay.
# [44] = tested on: C3A; type: functional, cell-based, Homo sapiens; details: Homo sapiens, C3A;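 further: growth inhibition of C3A human cells, quantified with a cell viability readout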
# Description: SANGER: Inhibition of human C3A cell growth in a cell viability assay.
# [45] = tested on: CAL-27; type: functional, cell-based, Homo sapiens; details: Homo sapiens, CAL-27;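 further: Viability-based readout, IC50 reflecting inhibition of CAL-27 cell growth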
# Description: SANGER: Inhibition of human CAL-27 cell growth in a cell viability assay.
# [46] = tested on: CAL-54; type: functional, cell-based, Homo sapiens; details: Homo sapiens, CAL-54;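 further: growth inhibition of CAL-54 cells, read out by a viability measurement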
# Description: SANGER: Inhibition of human CAL-54 cell growth in a cell viability assay.
# [47] = tested on: TGBC24TKB; type: functional, cell-based, Homo sapiens; details: Homo sapiens, TGBC24TKB;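 further: growth inhibition of human TGBC24TKB cells, read out with a cell viability assay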
# Description: SANGER: Inhibition of human TGBC24TKB cell growth in a cell viability assay.
# [48] = tested on: no-10; type: functional, cell-based, Homo sapiens; details: Homo sapiens;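 further: growth inhibition of no-10 cells, read out with a cell viability assay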
# Description: SANGER: Inhibition of human no-10 cell growth in a cell viability assay.
# [49] = tested on: CAMA-1; type: functional, cell-based, Homo sapiens; details: Homo sapiens, CAMA-1;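 further: growth inhibition of CAMA-1 cells, read out with a cell viability assay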
# Description: SANGER: Inhibition of human CAMA-1 cell growth in a cell viability assay.
# [50] = tested on: COLO-679; type: functional, cell-based, Homo sapiens; details: Homo sapiens, COLO-679
# Description: SANGER: Inhibition of human COLO-679 cell growth in a cell viability assay.
compound,measurement,setting,value
CCC1=C[C@@H]2CN(C1)Cc1c([nH]c3ccccc13)[C@@](C(=O)OC)(c1cc3c(cc1OC)N(C)[C@H]1[C@@](O)(C(=O)OC)[C@H](OC(C)=O)[C@]4(CC)C=CCN5CC[C@]31[C@@H]54)C2 [VINORELBINE],IC50,[1],0.0309 µM
same,IC50,[2],0.018 µM
same,IC50,[3],0.0639 µM
same,IC50,[4],> 0.064 µM
same,IC50,[5],> 0.064 µM
same,IC50,[6],> 0.064 µM
same,IC50,[7],> 0.064 µM
same,IC50,[8],> 0.064 µM
same,IC50,[9],0.00393 µM
same,IC50,[10],> 0.064 µM
same,IC50,[11],0.0102 µM
same,IC50,[12],0.00562 µM
same,IC50,[13],0.0315 µM
same,IC50,[14],> 0.064 µM
same,IC50,[15],> 0.064 µM
same,IC50,[16],0.00624 µM
same,IC50,[17],0.00976 µM
same,IC50,[18],0.0241 µM
same,IC50,[19],> 0.064 µM
same,IC50,[20],> 0.064 µM
same,IC50,[21],0.00362 µM
same,IC50,[22],0.061 µM
same,IC50,[23],0.025 µM
same,IC50,[24],> 0.064 µM
same,IC50,[25],0.00595 µM
same,IC50,[26],0.00326 µM
same,IC50,[27],0.00304 µM
same,IC50,[28],0.0102 µM
same,IC50,[29],0.00452 µM
same,IC50,[30],0.0173 µM
same,IC50,[31],0.0331 µM
same,IC50,[32],0.0125 µM
same,IC50,[33],> 0.064 µM
same,IC50,[34],0.00472 µM
same,IC50,[35],> 0.064 µM
same,IC50,[36],0.0271 µM
same,IC50,[37],0.00492 µM
same,IC50,[38],0.0029 µM
same,IC50,[39],0.0262 µM
same,IC50,[40],0.00727 µM
same,IC50,[41],0.0581 µM
same,IC50,[42],0.0285 µM
same,IC50,[43],0.00731 µM
same,IC50,[44],> 0.064 µM
same,IC50,[45],0.032 µM
same,IC50,[46],> 0.064 µM
same,IC50,[47],0.0201 µM
same,IC50,[48],0.0456 µM
same,IC50,[49],0.0456 µM
same,IC50,[50],0.00183 µM
